Publication PMC11912475 (Journal of Medicinal Chemistry, 2025)

Assays:
[1] = biological target: T1, Serotonin transporter SERT (Homo sapiens, UniProt P31645); assay: Radioligand displacement binding assay, [3H]paroxetine, SERT; conditions: for % inhibition of binding, SERT / inhibition at 10 µM: 10 μM
T1 construct: host or cells: HEK-293

Muscarinic M5 = biological target: T2, Muscarinic M5 (Homo sapiens, UniProt P08912); assay: Radioligand displacement binding assay, [3H]N-methylscopolamine, M5
T2 construct: host or cells: CHO-K1
T2 sequence (P08912 1-532): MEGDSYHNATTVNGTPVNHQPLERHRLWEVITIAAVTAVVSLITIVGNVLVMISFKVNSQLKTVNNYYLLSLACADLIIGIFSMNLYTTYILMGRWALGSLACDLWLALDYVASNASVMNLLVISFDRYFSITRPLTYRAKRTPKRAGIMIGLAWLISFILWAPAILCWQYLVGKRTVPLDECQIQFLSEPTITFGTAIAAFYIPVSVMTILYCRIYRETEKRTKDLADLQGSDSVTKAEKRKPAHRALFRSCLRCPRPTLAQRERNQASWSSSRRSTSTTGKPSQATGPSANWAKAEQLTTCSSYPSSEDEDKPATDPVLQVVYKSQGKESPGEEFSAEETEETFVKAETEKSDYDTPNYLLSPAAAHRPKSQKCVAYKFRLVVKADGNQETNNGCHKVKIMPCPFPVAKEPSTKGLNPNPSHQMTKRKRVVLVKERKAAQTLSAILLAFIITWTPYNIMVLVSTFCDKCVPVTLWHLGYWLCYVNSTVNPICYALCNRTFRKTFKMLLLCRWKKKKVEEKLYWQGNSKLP

μ opioid receptor (MOP) = biological target: T3, μ opioid receptor (MOP) (Homo sapiens, UniProt P35372); assay: biochemical; assay type: binding; conditions: read-out: % inhibition of binding, MOP
T3 construct: host or cells: CHO-K1

Histamine H1 = biological target: T4, Histamine H1 (Homo sapiens, UniProt P35367); assay: Radioligand displacement binding assay, [3H]pyrilamine, H1
T4 construct: host or cells: CHO-K1

[2] = biological target: GluN1-GluN2D NMDAR subtype (Homo sapiens, UniProt O15399+Q05586); assay: FLIPR/Ca2+ assay, NMDAR GluN1-GluN2D subtype in CHO cells; assay type: cell-based; conditions: CHO cells, 10 μM L-glutamate and 10 μM glycine; n.d. = 50% of inhibition could not be reached at the highest concentration used
Procedure, shortened: (§1)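 Fluo-4-loaded CHO cells (with probenecid and 500 μM ketamine during loading) stimulated with 10 μM L-glutamate plus 10 μM glycine added together with compounds, in HEPES buffer pH 7.3 with 2 mM CaCl2.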

Serotonin 5-HT5A = biological target: T5, Serotonin 5-HT5A (Homo sapiens, UniProt P47898); assay: Radioligand displacement binding assay, [3H]LSD, 5-HT5A
T5 construct: host or cells: CHO-K1

Serotonin 5-HT2C = biological target: T6, Serotonin 5-HT2C (Homo sapiens, UniProt P28335); assay: Radioligand displacement binding assay, [3H]mesulergine, 5-HT2C
T6 construct: host or cells: CHO-K1
T6 sequence (P28335 33-458): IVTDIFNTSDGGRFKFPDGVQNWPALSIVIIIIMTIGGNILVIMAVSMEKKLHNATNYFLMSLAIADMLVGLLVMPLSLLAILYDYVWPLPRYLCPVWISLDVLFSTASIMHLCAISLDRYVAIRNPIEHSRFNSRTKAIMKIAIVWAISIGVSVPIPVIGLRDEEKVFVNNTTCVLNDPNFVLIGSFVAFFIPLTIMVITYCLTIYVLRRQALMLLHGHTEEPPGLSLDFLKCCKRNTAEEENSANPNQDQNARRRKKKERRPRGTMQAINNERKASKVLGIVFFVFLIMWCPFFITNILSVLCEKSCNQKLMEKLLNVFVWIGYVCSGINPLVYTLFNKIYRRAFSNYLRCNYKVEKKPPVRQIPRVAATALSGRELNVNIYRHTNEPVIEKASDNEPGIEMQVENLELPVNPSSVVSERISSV

Serotonin 5-HT2A = biological target: T7, Serotonin 5-HT2A (Homo sapiens, UniProt P28223); assay: Radioligand displacement binding assay, [3H]ketanserin, 5-HT2A
T7 construct: host or cells: CHO-K1

Sigma σ1 = biological target: T8, Sigma σ1 (Homo sapiens, UniProt Q99720); assay: Radioligand displacement binding assay, [3H]pentazocine, sigma σ1
T8 construct: Sigma σ1; Source: Human Jurkat cells; host or cells: Jurkat

[3] = biological target: T9, Norepinephrine transporter NET (Homo sapiens, UniProt P23975); assay: Radioligand displacement binding assay, [125I]RTI-55, NET
T9 construct: host or cells: MDCK

Serotonin 5-HT7 = biological target: T10, Serotonin 5-HT7 (Homo sapiens, UniProt P34969); assay: Radioligand displacement binding assay, [3H]LSD, 5-HT7
T10 construct: host or cells: CHO-K1

[4] = biological target: T11, GluN1-GluN2B NMDAR subtype (Homo sapiens, UniProt Q05586+Q13224); assay: FLIPR/Ca2+ assay, NMDAR GluN1-GluN2B subtype in CHO cells; assay type: cell-based; conditions: CHO cells, 10 μM L-glutamate and 10 μM glycine; n.d. = 50% of inhibition could not be reached at the highest concentration used
T11 construct: host or cells: NR1-2B-CHO cells, constitutive expression
Procedure, shortened: as §1

[5] = biological target: GluN1-GluN2A NMDAR subtype (Homo sapiens, UniProt Q05586+Q12879); assay: FLIPR/Ca2+ assay, NMDAR GluN1-GluN2A subtype in CHO cells; assay type: cell-based; conditions: CHO cells, 10 μM L-glutamate and 10 μM glycine; n.d. = 50% of inhibition could not be reached at the highest concentration used
Procedure, shortened: as §1

[6] = biological target: GluN1-GluN2C NMDAR subtype (Homo sapiens, UniProt Q05586+Q14957); assay: FLIPR/Ca2+ assay, NMDAR GluN1-GluN2C subtype in CHO cells; assay type: cell-based; conditions: CHO cells, 10 μM L-glutamate and 10 μM glycine; n.d. = 50% of inhibition could not be reached at the highest concentration used
Procedure, shortened: as §1

[7] = test system: Glutamate, NMDA, Phencyclidine binding site; assay: Radioligand displacement binding assay, [3H]TCP, NMDA; design: species or system Wistar rat
Serotonin 5-HT1A = biological target: T12, Serotonin 5-HT1A (Homo sapiens, UniProt P08908); assay: Radioligand displacement binding assay, [3H]8-OH-DPAT, 5-HT1A
T12 construct: host or cells: CHO-K1
T12 sequence (P08908 1-422): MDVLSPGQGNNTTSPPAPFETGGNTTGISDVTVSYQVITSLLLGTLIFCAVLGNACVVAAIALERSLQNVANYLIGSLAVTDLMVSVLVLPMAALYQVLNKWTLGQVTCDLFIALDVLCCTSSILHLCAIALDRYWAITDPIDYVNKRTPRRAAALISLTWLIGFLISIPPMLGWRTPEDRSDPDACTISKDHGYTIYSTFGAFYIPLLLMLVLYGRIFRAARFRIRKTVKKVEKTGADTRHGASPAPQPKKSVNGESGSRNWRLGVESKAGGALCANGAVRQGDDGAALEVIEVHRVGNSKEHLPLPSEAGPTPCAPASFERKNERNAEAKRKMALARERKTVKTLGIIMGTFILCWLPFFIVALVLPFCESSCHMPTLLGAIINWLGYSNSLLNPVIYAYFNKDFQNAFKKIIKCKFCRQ

Sequence of GluN1-GluN2D NMDAR subtype (O15399 28-1336, other chains not shown): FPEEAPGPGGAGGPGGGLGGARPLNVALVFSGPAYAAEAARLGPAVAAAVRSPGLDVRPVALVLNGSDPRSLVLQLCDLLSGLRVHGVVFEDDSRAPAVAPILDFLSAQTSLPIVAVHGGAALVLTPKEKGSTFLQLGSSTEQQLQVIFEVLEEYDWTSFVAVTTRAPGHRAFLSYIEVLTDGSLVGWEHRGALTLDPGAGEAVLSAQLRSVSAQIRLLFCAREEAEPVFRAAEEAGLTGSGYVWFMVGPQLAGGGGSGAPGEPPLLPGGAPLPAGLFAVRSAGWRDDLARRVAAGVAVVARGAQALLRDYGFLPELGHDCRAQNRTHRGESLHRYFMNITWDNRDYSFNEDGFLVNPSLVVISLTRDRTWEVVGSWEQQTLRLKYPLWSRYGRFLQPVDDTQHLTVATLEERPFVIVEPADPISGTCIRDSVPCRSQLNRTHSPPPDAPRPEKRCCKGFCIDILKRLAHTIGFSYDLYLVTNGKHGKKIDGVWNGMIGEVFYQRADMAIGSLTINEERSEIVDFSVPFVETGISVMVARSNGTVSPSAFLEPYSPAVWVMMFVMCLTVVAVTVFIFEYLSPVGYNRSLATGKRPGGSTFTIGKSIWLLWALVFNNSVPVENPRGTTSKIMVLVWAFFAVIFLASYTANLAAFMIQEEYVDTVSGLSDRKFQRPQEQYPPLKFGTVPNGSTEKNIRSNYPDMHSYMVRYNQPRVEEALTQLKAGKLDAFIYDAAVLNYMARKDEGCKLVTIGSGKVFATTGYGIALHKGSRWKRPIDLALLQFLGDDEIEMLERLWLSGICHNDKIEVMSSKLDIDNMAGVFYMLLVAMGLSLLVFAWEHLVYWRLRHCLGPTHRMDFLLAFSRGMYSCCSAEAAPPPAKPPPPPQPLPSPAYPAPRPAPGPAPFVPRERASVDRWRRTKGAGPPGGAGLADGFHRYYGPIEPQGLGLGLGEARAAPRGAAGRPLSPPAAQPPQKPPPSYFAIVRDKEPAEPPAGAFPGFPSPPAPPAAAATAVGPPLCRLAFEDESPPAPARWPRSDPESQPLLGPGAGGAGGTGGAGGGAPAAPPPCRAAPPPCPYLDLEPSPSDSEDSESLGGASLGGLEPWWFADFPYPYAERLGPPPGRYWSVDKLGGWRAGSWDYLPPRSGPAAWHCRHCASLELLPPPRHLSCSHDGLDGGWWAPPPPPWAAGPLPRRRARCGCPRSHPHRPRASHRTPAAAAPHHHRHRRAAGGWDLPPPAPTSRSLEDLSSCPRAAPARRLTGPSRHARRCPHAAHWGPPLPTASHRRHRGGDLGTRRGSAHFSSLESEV
T11 sequence (Q13224 27-1484, other chains not shown): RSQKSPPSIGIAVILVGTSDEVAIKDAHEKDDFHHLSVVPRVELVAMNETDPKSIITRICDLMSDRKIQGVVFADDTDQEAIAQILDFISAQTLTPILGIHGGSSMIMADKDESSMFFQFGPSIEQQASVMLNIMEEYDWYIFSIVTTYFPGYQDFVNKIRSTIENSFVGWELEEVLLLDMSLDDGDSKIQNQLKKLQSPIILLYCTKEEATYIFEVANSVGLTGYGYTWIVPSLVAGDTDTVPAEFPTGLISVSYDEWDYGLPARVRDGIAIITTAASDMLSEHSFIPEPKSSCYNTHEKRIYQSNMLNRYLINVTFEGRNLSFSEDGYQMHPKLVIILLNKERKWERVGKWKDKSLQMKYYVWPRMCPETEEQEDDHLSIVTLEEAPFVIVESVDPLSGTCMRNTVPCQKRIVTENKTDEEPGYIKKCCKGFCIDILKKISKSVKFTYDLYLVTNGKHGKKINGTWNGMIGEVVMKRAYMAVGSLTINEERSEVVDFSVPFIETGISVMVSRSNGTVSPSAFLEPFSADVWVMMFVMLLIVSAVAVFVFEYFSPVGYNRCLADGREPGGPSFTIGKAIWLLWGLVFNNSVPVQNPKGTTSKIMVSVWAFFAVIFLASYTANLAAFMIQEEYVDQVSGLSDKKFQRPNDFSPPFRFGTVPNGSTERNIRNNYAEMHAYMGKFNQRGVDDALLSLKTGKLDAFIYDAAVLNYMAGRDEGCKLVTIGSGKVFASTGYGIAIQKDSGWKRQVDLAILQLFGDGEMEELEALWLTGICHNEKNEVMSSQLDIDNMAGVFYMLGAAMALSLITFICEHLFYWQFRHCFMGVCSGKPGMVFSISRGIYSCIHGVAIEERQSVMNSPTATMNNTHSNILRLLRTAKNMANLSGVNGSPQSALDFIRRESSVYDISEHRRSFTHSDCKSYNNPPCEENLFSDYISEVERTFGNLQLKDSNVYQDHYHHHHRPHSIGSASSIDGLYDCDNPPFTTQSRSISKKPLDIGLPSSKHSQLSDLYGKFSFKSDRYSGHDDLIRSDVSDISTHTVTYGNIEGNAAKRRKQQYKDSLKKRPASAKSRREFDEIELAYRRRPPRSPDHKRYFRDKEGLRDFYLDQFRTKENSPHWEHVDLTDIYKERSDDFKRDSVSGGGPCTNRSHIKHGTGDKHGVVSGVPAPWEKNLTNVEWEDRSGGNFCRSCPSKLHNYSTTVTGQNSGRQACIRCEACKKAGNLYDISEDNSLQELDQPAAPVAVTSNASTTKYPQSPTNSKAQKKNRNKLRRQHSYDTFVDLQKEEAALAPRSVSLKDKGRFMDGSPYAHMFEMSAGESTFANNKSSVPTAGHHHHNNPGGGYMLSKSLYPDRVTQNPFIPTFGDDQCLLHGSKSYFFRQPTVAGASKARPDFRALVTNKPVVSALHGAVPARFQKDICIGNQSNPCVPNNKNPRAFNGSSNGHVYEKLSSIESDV
T5 sequence (P47898 whole entry): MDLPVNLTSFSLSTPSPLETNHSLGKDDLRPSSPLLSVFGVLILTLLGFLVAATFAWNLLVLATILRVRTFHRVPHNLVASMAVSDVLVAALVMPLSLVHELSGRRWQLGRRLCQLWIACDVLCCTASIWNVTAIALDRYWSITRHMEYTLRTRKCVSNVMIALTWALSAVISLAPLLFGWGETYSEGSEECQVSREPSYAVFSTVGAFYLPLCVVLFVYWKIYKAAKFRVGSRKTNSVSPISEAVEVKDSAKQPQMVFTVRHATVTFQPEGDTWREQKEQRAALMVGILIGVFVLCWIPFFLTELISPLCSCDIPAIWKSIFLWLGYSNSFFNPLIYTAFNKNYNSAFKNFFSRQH
T3 sequence (P35372 whole entry): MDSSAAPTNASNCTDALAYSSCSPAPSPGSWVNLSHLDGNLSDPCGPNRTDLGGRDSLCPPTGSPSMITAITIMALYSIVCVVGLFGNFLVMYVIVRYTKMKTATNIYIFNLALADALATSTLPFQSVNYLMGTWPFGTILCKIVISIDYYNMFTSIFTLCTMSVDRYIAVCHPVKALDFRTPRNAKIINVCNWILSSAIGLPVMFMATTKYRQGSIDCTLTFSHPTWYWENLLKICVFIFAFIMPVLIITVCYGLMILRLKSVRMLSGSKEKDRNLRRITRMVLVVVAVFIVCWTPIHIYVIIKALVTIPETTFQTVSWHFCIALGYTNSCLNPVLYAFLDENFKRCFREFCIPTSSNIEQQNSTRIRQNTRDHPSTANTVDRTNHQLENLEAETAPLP
T4 sequence (P35367 whole entry): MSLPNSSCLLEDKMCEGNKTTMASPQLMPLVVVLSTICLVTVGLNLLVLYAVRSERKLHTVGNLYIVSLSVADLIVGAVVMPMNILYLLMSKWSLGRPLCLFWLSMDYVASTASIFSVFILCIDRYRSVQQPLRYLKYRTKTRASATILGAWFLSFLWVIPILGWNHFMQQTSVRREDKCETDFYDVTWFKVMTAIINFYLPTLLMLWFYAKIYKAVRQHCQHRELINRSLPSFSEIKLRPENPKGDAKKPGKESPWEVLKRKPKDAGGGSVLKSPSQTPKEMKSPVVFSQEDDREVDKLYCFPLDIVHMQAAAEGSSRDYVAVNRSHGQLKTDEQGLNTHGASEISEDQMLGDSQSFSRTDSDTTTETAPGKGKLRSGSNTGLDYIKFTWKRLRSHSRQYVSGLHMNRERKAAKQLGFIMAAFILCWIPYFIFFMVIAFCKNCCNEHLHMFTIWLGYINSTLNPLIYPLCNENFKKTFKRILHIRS
T10 sequence (P34969 whole entry): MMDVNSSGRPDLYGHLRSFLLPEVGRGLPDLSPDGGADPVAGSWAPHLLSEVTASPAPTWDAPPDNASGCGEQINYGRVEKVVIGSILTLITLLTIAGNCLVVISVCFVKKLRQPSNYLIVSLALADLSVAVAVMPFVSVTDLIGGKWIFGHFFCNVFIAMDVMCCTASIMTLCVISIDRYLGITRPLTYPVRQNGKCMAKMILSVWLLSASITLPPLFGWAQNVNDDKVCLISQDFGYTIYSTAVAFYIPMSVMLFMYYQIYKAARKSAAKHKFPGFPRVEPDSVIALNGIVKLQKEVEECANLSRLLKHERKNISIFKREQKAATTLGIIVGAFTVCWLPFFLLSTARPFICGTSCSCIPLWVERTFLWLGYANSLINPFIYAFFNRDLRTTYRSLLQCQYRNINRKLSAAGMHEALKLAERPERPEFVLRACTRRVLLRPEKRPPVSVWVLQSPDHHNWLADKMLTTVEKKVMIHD
T7 sequence (P28223 whole entry): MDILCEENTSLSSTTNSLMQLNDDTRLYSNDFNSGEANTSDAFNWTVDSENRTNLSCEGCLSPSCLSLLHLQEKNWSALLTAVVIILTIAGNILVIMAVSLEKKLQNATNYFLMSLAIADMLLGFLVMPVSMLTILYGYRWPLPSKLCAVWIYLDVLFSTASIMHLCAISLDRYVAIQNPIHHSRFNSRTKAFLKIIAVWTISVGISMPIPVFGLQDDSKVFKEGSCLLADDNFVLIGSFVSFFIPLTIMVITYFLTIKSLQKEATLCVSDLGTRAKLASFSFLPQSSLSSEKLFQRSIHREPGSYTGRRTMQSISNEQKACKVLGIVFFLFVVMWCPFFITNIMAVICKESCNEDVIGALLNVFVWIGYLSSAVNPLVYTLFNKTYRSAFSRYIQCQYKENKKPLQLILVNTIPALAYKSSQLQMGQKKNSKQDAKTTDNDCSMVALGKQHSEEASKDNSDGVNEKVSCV

CC[C@@H](O)C(C[C@H](C)N)(c1ccccc1)c1ccccc1 [(3R,6S)-DNML, (3R,6S)-6-amino-4,4-diphenylheptan-3-ol]
inhibition at 1 µM [1]: 29%
% inhibition of binding, SERT [1]: displaced
inhibition at 10 µM [1]: 65%
inhibition at 1 µM (Muscarinic M5): 9%
inhibition at 10 µM (Muscarinic M5): 13%
inhibition at 0.3 µM (μ opioid receptor (MOP)): -3%
inhibition at 3 µM (μ opioid receptor (MOP)): 26%
inhibition at 10 µM (Histamine H1): 4%
inhibition at 30 µM (Histamine H1): 19%
pIC50 (mean ± SEM) GluN1-GluN2D [2]: 4.9 ± 0.093
inhibition at 1 µM (Serotonin 5-HT5A): -1%
inhibition at 10 µM (Serotonin 5-HT5A): 16%
inhibition at 0.3 µM (Serotonin 5-HT2C): 3%
inhibition at 3 µM (Serotonin 5-HT2C): -1%
inhibition at 0.3 µM (Serotonin 5-HT2A): 6%
inhibition at 3 µM (Serotonin 5-HT2A): 9%
inhibition at 0.3 µM (Sigma σ1): 17%
inhibition at 3 µM (Sigma σ1): 61%
inhibition at 1 µM [3]: 0%
inhibition at 10 µM [3]: 5%
inhibition at 1 µM (Serotonin 5-HT7): 14%
inhibition at 10 µM (Serotonin 5-HT7): 12%
pIC50 (mean ± SEM) GluN1-GluN2B [4]: 4.6 ± 0.062
pIC50 (mean ± SEM) GluN1-GluN2A [5]: 4.6 ± 0.077
pIC50 (mean ± SEM) GluN1-GluN2C [6]: 5.1 ± 0.062
% inhibition of binding, NMDA ([7]; 1 μM): 12%
inhibition at 0.3 µM (Serotonin 5-HT1A): 1%
inhibition at 3 µM (Serotonin 5-HT1A): -1%

CC[C@H](O)C(C[C@H](C)N)(c1ccccc1)c1ccccc1 [(3S,6S)-DNML, (3S,6S)-6-amino-4,4-diphenylheptan-3-ol]
inhibition at 1 µM [1]: 35%
% inhibition of binding, SERT [1]: displaced
inhibition at 10 µM [1]: 82%
inhibition at 1 µM (Muscarinic M5): 1%
inhibition at 10 µM (Muscarinic M5): 9%
inhibition at 0.3 µM (μ opioid receptor (MOP)): 38%
inhibition at 3 µM (μ opioid receptor (MOP)): 84%
inhibition at 10 µM (Histamine H1): 5%
inhibition at 30 µM (Histamine H1): 24%
pIC50 (mean ± SEM) GluN1-GluN2D [2]: 4.7 ± 0.079
inhibition at 1 µM (Serotonin 5-HT5A): -7%
inhibition at 10 µM (Serotonin 5-HT5A): -12%
inhibition at 0.3 µM (Serotonin 5-HT2C): 1%
inhibition at 3 µM (Serotonin 5-HT2C): 19%
inhibition at 0.3 µM (Serotonin 5-HT2A): 12%
inhibition at 3 µM (Serotonin 5-HT2A): 10%
inhibition at 0.3 µM (Sigma σ1): 46%
inhibition at 3 µM (Sigma σ1): 71%
inhibition at 1 µM [3]: -5%
inhibition at 10 µM [3]: 3%
inhibition at 1 µM (Serotonin 5-HT7): 5%
inhibition at 10 µM (Serotonin 5-HT7): 4%
pIC50 (mean ± SEM) GluN1-GluN2B [4]: 4.4 ± 0.13
pIC50 (mean ± SEM) GluN1-GluN2A [5]: 4.9 ± 0.081
pIC50 (mean ± SEM) GluN1-GluN2C [6]: 4.7 ± 0.056
% inhibition of binding, NMDA ([7]; 1 μM): 9%
% inhibition of binding, NMDA ([7]; 10 μM): 36%
inhibition at 0.3 µM (Serotonin 5-HT1A): 24%
inhibition at 3 µM (Serotonin 5-HT1A): 15%

CC[C@@H](O)C(C[C@H](C)NC)(c1ccccc1)c1ccccc1 [(3R,6S)-NML, (3R,6S)-6-(methylamino)-4,4-diphenylheptan-3-ol]
inhibition at 1 µM [1]: 12%
inhibition at 10 µM [1]: 45%
inhibition at 1 µM (Muscarinic M5): 11%
inhibition at 10 µM (Muscarinic M5): 46%
inhibition at 0.3 µM (μ opioid receptor (MOP)): 1%
inhibition at 3 µM (μ opioid receptor (MOP)): 29%
inhibition at 10 µM (Histamine H1): 6%
inhibition at 30 µM (Histamine H1): 43%
pIC50 (mean ± SEM) GluN1-GluN2D [2]: 4.7 ± 0.057
inhibition at 1 µM (Serotonin 5-HT5A): -1%
inhibition at 10 µM (Serotonin 5-HT5A): 15%
inhibition at 0.3 µM (Serotonin 5-HT2C): -4%
inhibition at 3 µM (Serotonin 5-HT2C): 5%
inhibition at 0.3 µM (Serotonin 5-HT2A): 0%
inhibition at 3 µM (Serotonin 5-HT2A): 4%
inhibition at 0.3 µM (Sigma σ1): 47%
inhibition at 3 µM (Sigma σ1): 80%
inhibition at 1 µM [3]: 10%
inhibition at 10 µM [3]: 14%
inhibition at 1 µM (Serotonin 5-HT7): 14%
inhibition at 10 µM (Serotonin 5-HT7): 28%
pIC50 (mean ± SEM) GluN1-GluN2B [4]: 4.5 ± 0.053
pIC50 (mean ± SEM) GluN1-GluN2A [5]: 4.4 ± 0.037
pIC50 (mean ± SEM) GluN1-GluN2C [6]: 4.6 ± 0.046
% inhibition of binding, NMDA ([7]; 1 μM): 8%
% inhibition of binding, NMDA ([7]; 10 μM): 48%
inhibition at 0.3 µM (Serotonin 5-HT1A): 5%
inhibition at 3 µM (Serotonin 5-HT1A): 11%
